Here are results for five compounds from patent EP0263214A1, “Tetrapeptide methyl ketone inhibitors of viral proteases” (priority 1986, dated 1988).

Where two headings read alike, the source gives them in different places. * marks the point of attachment. CH2Cl = ClC*

The test system of one series is chymotrypsin. Conditions: inhibitor concentration of 600 ug/rnL; cited from earlier work.
A further series deals with subtilisin BPN'. Conditions: compared within a series of peptide chloromethyl ketones; cited from earlier work.
Another series concerns human rhinovirus type 1A. Type of series: cell-based.
Series [1] deals with human poliomyelitis virus type 2. Type of series: cell-based.
A further series concerns rhinovirus type 1A. Type of series: cell-based.
The subject of another series is Poliovirus type 2. Type of series: cell-based.

For Ac-Leu-Leu-PheCH3, the inhibition of chymotrypsin result with chymotrypsin was “no inhibition was observed”.
“acetyl-L-phenylalanyl-L-glycyl-L-alanyl-L-leucyl chloromethyl ketone (Ac-FGAL-CH2Cl; SMILES CC(=O)N[C@@H](Cc1ccccc1)C(=O)NCC(=O)N[C@@H](C)C(=O)N[C@@H](CC(C)C)C(=O)CCl) [Ac-Phe-Gly-Ala-LeuCH2CI]”: the “inhibition of subtilisin BPN'” value in the series with subtilisin BPN' was “fastest inhibitor”.
With `CC(=O)[C@H](CC(C)C)NC(=O)[C@H](C)NC(=O)CNC(=O)[C@H](Cc1ccccc1)NC(=O)OC(C)(C)C` [Boc-Phe-Gly-Ala-LeuCH3, reference compound], the “activity in the viral cleavage assay” value (in the series with human rhinovirus type 1A; in series [1]) was “failed to show activity” each time.
For `COC(=O)CCC(=O)N[C@@H](Cc1ccccc1)C(=O)NCC(=O)N[C@@H](CC(C)C)C(=O)N[C@@H](CC(C)C)C(C)=O` [MeOSuc-Phe-Gly-Leu-LeuCH3], in series [1] (50 µg/mL), the “activity in the viral cleavage assay” value was “active”.
As for `CC(=O)[C@H](CC(C)C)NC(=O)[C@H](C)NC(=O)CNC(=O)[C@H](Cc1ccccc1)NC(=O)OCc1ccccc1` [Z-Phe-Gly-Ala-LeuCH3], the cytotoxicity result in the series on HeLa cells was “No cytotoxicity was observed”. For the same compound, in series [1] (50 µg/mL), the “activity in the viral cleavage assay” value was “active”. Further, the plaque reduction in the series on rhinovirus type 1A and in the series on Poliovirus type 2 was above 90% in each case.
